PMC9316855 (Molecules, 2022)
Like-named read-outs stand apart in the source and are kept apart here.

Assays:
[1] = 24 h; cited from earlier work
[2] = 4 h; cited from earlier work

Q: For `CC(C)C[C@H](NC(=O)[C@H](CC(=O)O)NC(=O)CNC(=O)[C@H](CCCNC(=N)N)NC(=O)[C@H](CC(C)C)NC(=O)[C@H](CC(N)=O)NC(=O)[C@@H]1CCCN1C(=O)[C@@H](NC(=O)[C@H](C)NC(=O)[C@@H](N)CC(N)=O)C(C)C)C(=O)N[C@@H](CCC(N)=O)C(=O)N[C@H](C(=O)N[C@@H](CC(C)C)C(=O)N[C@@H](C)C(=O)N[C@@H](CCC(N)=O)C(=O)N[C@@H](CCCCN)C(=O)N[C@H](C(=O)N[C@@H](C)C(=O)N[C@@H](CCCNC(=N)N)C(=O)N[C@H](C(=O)O)[C@@H](C)O)C(C)C)C(C)C` [Compound 13, H2N-^1NAVPNLRGDLQVLAQKVAR^20T-OH], which “peptide remaining intact in rat serum” value (24 h) is on record?
A: almost completely degraded

Q: What about the “peptide remaining intact in rat serum” value (48 h) of the same compound?
A: undetected

Q: And the “peptide remaining in human plasma” value [1]?
A: > 75%

Q: And the “peptide remaining intact in mouse serum” value [2]?
A: 50%
